Laboratory results published in patent publication US20240308992A1 (Biopolar Youtang(Guangdong) Pharmaceutical Co., Ltd., priority 2021, published 2024).

Target: T1, Drak2 (Homo sapiens, UniProt O94768)
T1 sequence (O94768 1-372): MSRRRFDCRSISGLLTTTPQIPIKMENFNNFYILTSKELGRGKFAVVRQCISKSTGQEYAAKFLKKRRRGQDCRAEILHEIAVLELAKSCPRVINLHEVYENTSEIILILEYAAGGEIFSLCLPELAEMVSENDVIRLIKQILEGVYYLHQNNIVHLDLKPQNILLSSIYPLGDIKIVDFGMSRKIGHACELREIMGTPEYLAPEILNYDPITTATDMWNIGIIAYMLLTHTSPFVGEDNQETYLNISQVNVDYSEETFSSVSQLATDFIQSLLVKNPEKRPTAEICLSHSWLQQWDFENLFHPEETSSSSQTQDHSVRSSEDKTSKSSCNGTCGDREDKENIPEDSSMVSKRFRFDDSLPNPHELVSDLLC
Experiment: Drak2 activity test, ADP-Glo kinase assay (Promega)
Type: biochemical
Settings: inhibition of Drak2 kinase activity, 2 h room temperature, activity range classes, read-out: IC50_Drak2

Row | SMILES | IC50
1 | COc1cc(-c2cncc(-c3cc(NC(=O)CC4CC(F)C4)cs3)n2)ccc1C(=O)N(C)C1CC2(C1)CN(C)C2 (centres unmarked) [Example B99, 4-(6-(4-(2-(3-fluorocyclobutyl)acetamido)thiophen-2-yl)pyrazin-2-yl)-2-methoxy-N-methyl-N-(2-methyl-2-azaspiro[3.3]heptan-6-yl)benzamide] | < 10 nM
2 | COc1cc(-c2cncc(-c3cc(NC(=O)C(C)(C)C4CCC4)cs3)n2)ccc1C(=O)N(C)C1CCN(C)CC1 [Example B100, 4-(6-(4-(2-cyclobutyl-2-methylpropanamido)thiophen-2-yl)pyrazin-2-yl)-2-methoxy-N-methyl-N-(1-methylpiperidin-4-yl)benzamide] | 11 to 100 nM
3 | COc1cc(-c2cncc(-c3cc(NC(=O)CC4CCC4)cs3)n2)ccc1S(=O)(=O)N(C)CCN(C)C [Example B101, 2-cyclobutyl-N-(5-(6-(4-(N-(2-(dimethylamino)ethyl)-N-methylsulfamoyl)-3-methoxyphenyl)pyrazin-2-yl)thiophen-3-yl)acetamide] | 11 to 100 nM
4 | COc1cc(-c2cncc(-c3cc(NC(=O)CC4CC4)cs3)n2)ccc1S(=O)(=O)N(C)CCN(C)C [Example B102, 2-cyclopropyl-N-(5-(6-(4-(N-(2-(dimethylamino)ethyl)-N-methylsulfamoyl)-3-methoxyphenyl)pyrazin-2-yl)thiophen-3-yl)acetamide] | 11 to 100 nM
5 | COc1cc(-c2cncc(-c3cc(NC(=O)CC4CC4)cs3)n2)ccc1S(=O)(=O)N(C)C1CCN(C)CC1 [Example B103, 2-cyclopropyl-N-(5-(6-(3-methoxy-4-(N-methyl-N-(1-methylpiperidin-4-yl)sulfamoyl)phenyl)pyrazin-2-yl)thiophen-3-yl)acetamide] | 11 to 100 nM
6 | COc1cc(-c2cncc(-c3cc(NC(=O)CC4CCC4)cs3)n2)ccc1S(=O)(=O)N(C)C1CCN(C)CC1 [Example B104, 2-cyclobutyl-N-(5-(6-(3-methoxy-4-(N-methyl-N-(1-methylpiperidin-4-yl)sulfamoyl)phenyl)pyrazin-2-yl)thiophen-3-yl)acetamide] | 11 to 100 nM
7 | COc1cc(-c2cncc(-c3cc(NC(=O)CC4CCC4)cs3)n2)ccc1S(=O)(=O)N1CCOCC1 [Example B105, 2-cyclobutyl-N-(5-(6-(3-methoxy-4-(morpholinosulfonyl)phenyl)pyrazin-2-yl)thiophen-3-yl)acetamide] | 11 to 100 nM
8 | COc1ccc(-c2cncc(-c3cc(NC(=O)C4CCC4)cs3)c2C(N)=O)cc1OC [Example C1, 3-(4-(cyclobutanecarboxamido)thiophen-2-yl)-5-(3,4-dimethoxyphenyl)isonicotinamide] | > 10000 nM
9 | COc1ccc(-c2cncc(-c3cc(NC(=O)C4CCC4)cs3)c2C#N)cc1OC [Example C2, N-(5-(4-cyano-5-(3,4-dimethoxyphenyl)pyridin-3-yl)thiophen-3-yl)cyclobutanecarboxamide] | 1000 to 10000 nM
10 | CCCCC(=O)Nc1csc(-c2cncc(-c3ccc(OC)c(OC)c3)c2C(N)=O)c1 [Example C3, 3-(3,4-dimethoxyphenyl)-5-(4-pentanamidothiophen-2-yl)isonicotinamide] | 1000 to 10000 nM
11 | CCCCC(=O)Nc1csc(-c2cncc(-c3ccc(OC)c(OC)c3)c2C#N)c1 [Example C4, N-(5-(4-cyano-5-(3,4-dimethoxyphenyl)pyridin-3-yl)thiophen-3-yl)pentanamide] | 1000 to 10000 nM
12 | COc1cc(-c2cncc(-c3cc(OCC[C@H](C)CN)cs3)n2)ccc1C(=O)N(C)C1CCN(C)CC1 [Example G1, (S)-4-(6-(4-(4-amino-3-methylbutoxy)thiophen-2-yl)pyrazin-2-yl)-2-methoxy-N-methyl-N-(1-methylpiperidin-4-yl) benzamide] | 101 to 1000 nM

Further lines, results first:

Row | IC50 | SMILES
13 | > 10000 nM | COc1ccc(-c2cncc(NC3CCC(N)CC3)n2)cc1OC (centres unmarked) [Example D1, N^1-(6-(3,4-dimethoxyphenyl)pyrazin-2-yl)cyclohexane-1,4-diamine]
14 | > 10000 nM | COc1ccc(-c2cncc(NC3CCC(NC(=O)C4CCC4)CC3)n2)cc1OC (centres unmarked) [Example D2, N-(4-((6-(3,4-dimethoxyphenyl)pyrazin-2-yl)amino)cyclohexyl)cyclobutanecarboxamide]
15 | > 10000 nM | COc1ccc(-c2cncc(-c3nc(NC(=O)OC(C)(C)C)cs3)n2)cc1OC [Example D3, tert-butyl (2-(6-(3,4-dimethoxyphenyl)pyrazin-2-yl)thiazol-4-yl)carbamate]
16 | 1000 to 10000 nM | CCN(CC)C(=O)Nc1csc(-c2cncc(-c3ccc(OC)c(OC)c3)n2)n1 [Example D4, 3-(2-(6-(3,4-dimethoxyphenyl)pyrazin-2-yl)thiazol-4-yl)-1,1-diethylurea]
17 | 1000 to 10000 nM | CCCCC(=O)Nc1csc(-c2ccnc(-c3ccc(C(=O)N(C)C4CCN(C)CC4)c(OC)c3)n2)c1 [Example D5, 2-methoxy-N-methyl-N-(1-methylpiperidin-4-yl)-4-(4-(4-pentanamidothiophen-2-yl)pyrimidin-2-yl)benzamide]
18 | 101 to 1000 nM | CCCCC(=O)Nc1csc(-c2cncc(N3CCN(S(C)(=O)=O)CC3)n2)c1 [Example D6, N-(5-(6-(4-(methylsulfonyl)piperazin-1-yl)pyrazin-2-yl)thiophen-3-yl)pentanamide]
19 | 1000 to 10000 nM | CCCCC(=O)Nc1csc(-c2cncc(C3CCN(S(C)(=O)=O)CC3)n2)c1 [Example D7, N-(5-(6-(1-(methylsulfonyl)piperidin-4-yl)pyrazin-2-yl)thiophen-3-yl)pentanamide]
20 | 1000 to 10000 nM | CCCCC(=O)Nc1csc(-c2cncc(C3=CCN(S(C)(=O)=O)CC3)n2)c1 [Example D8, N-(5-(6-(1-(methylsulfonyl)-1,2,3,6-tetrahydropyridin-4-yl)pyrazin-2-yl)thiophen-3-yl)pentanamide]
21 | 11 to 100 nM | CN1CCC(C(=O)N2CCOc3cc(-c4cncc(-c5cc(NC(=O)CC6CCC6)cs5)n4)ccc32)CC1 [Example E1, 2-cyclobutyl-N-(5-(6-(4-(1-methylpiperidine-4-carbonyl)-3,4-dihydro-2H-benzo[b][1,4]oxazin-7-yl)pyrazin-2-yl)thiophen-3-yl)acetamide]
22 | 11 to 100 nM | CN1CCC(C(=O)N2CCOc3cc(-c4cncc(-c5cc(NC(=O)CC6CC6)cs5)n4)ccc32)CC1 [Example E2, 2-cyclopropyl-N-(5-(6-(4-(1-methylpiperidin-4-carbonyl)-3,4-dihydro-2H-benzo[b][1,4]oxazin-7-yl)pyrazine-2-yl)thiophene-3-yl) acetamide]
23 | 11 to 100 nM | COc1cc(-c2cncc(-c3cc(NC(=O)NC4CCC4)cs3)n2)ccc1C(=O)N(C)C1CCN(C)CC1 [Example F1, 4-(6-(4-(3-cyclobutylurea)thiophen-2-yl)pyrazin-2-yl)-2-methoxy-N-methyl-N-(1-methylpiperidin-4-yl) benzamide]
